This passage reports Ki and inhibition results from patent US6420397B1, “Heteroaryl protease inhibitors and diagnostic imaging agents” (3-Dimensional Pharmaceuticals, Inc., priority 1999, dated 2002).

By Ki is commonly meant a measure of affinity in units of concentration, obtained from inhibition or displacement. High values mean weaker binding, low ones tighter binding. Broadly, the inhibition is the drop in the measured response relative to a control, in per cent.

The target in one experiment is T1, Human α-thrombin (Homo sapiens, UniProt P00734).
T1 construct: Purified human α-thrombin was diluted into assay buffer; purchased Enzyme Research Laboratories (South Bend, Indiana)
Put plainly: In vitro inhibition of purified enzymes: thrombin Ki determination (p-nitroanilide substrate hydrolysis). The experiment is classed as biochemical. The note with it: substrate N-succinyl-Ala-Ala-Pro-Arg-p-nitroanilide, 37° C., pH 7.5. An excerpt: (§1) Reagents: All buffer salts were obtained from Sigma Chemical Company (St. Louis, Mo.), and were of the highest purity available. The enzyme substrate N-benzoyl-Ile-Glu-Gly-Arg-p-nitroanilide hydrochloride (Sigma B2291) was obtained from Sigma. N-succinyl-Ala-Ala-Pro-Arg-p-nitroanilide (BACHEM L-1720) was obtained from BACHEM (King of Prussia, Pa.). Human α-thrombin and human factor Xa were obtained from Enzyme Research Laboratories (South Bend, Indiana).
Ki Determinations: All assays are based on the ability of the test compound to inhibit the enzyme catalyzed hydrolysis of a peptide p-nitroanilide substrate. In a typical Ki determination, substrate is prepared in DMSO, and diluted into an assay buffer consisting of 50 mM HEPES, 200 mM NaCl, pH 7.5. The final concentrations for each of the substrates is listed below. In general, substrate concentrations are lower than the experimentally determined value for Km. Test compounds are prepared as a 1.0 mg/ml solution in DMSO. Dilutions are prepared in DMSO yielding 8 final concentrations encompassing a 200 fold concentration range. Enzyme solutions are prepared at the concentrations listed below in assay buffer.
(§2) In a typical Ki determnination, into each well of a 96 well plate is pipetted […] of substrate solution, […] of test compound solution, and the plate allowed to thermally equilibrate at 37° C. in a Molecular Devices plate reader for >15 minutes. Reactions were initiated by the addition of a […] aliquot of enzyme and the absorbance increase at 405 nm is recorded for 15 minutes. Data corresponding to less than 10% of the total substrate hydrolysis were used in the calculations. The ratio of the velocity (rate of change in absorbance as a function of time) for a sample containing no test compound is divided by the velocity of a sample containing test compound, and is plotted as a function of test compound concentration. The data are fit to a linear regression, and the value of the slope of the line calculated. The inverse of the slope is the experimentally determined Ki value.
Thrombin: Thrombin activity was assessed as the ability to hydrolyze the substrate N-succinyl-Ala-Ala-Pro-Arg-p-nitroanilide. Substrate solutions were prepared at a concentration of […] in assay buffer. Final DMSO concentration was 4.3%. Purified human α-thrombin was diluted into assay buffer to a concentration of 15 nM. Final reagent concentrations were: [thrombin]=0.5 nM, [substrate N-succinyl-Ala-Ala-Pro-Arg-p-nitroanilide]=32 mM.

The target of the next experiment is T2, human factor Xa (Homo sapiens, UniProt P00742).
T2 construct: purchased Enzyme Research Laboratories (South Bend, Indiana)
T2 sequence (P00742 235-488 limits assumed): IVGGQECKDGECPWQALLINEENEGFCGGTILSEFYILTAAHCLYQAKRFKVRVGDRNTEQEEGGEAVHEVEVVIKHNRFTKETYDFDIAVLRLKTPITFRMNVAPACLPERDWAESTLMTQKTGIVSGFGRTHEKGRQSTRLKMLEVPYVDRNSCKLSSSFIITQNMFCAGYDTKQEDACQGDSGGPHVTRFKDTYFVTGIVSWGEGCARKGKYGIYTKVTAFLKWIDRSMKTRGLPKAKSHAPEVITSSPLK
T2 sequence (P00742 41-179 limits assumed): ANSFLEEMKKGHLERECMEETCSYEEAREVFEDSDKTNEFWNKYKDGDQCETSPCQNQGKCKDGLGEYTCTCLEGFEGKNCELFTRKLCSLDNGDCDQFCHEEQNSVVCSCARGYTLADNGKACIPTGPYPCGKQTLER
The experiment in a line: In vitro inhibition of purified enzymes: Factor Xa (p-nitroanilide substrate hydrolysis). In kind it is biochemical. The note with it: read-out: Factor Xa % inhibition @ conc.
Text: as §1
Ki Determinations: All assays are based on the ability of the test compound to inhibit the enzyme catalyzed hydrolysis of a peptide p-nitroanilide substrate. […] In general, substrate concentrations are lower than the experimentally determined value for Km. […]
as §2, with “Data corresponding to less than 10% of the total substrate hydrolysis were used in the calculations.” left out, “The data are fit to a linear regression, and the value of the slope of the line calculated. The inverse of the slope is the experimentally determined Ki value.” left out

Each structure is given as a SMILES string.

The molecule `Cc1ccc(NS(=O)(=O)Cc2ccccc2I)c(=O)n1CC(=O)N[C@@H](CCONC(=N)N)C(=O)c1nc2ccccc2s1` [Example 2, N-{(1S)-1-[2-(Amidinoaminooxy)ethyl]-2-benzothiazol-2-yl-2-oxoethyl}-2-[3-({[(2-iodophenyl)methyl]sulfonyl}amino)-6-methyl-2-oxohydropyridyl]acetamide] registered a Ki on Human α-thrombin of 75 nM. At human factor Xa (@ 13 μM), the inhibition at 13 µM came out at 51%.

`Cc1ccc(NS(=O)(=O)Cc2ccccc2I)c(=O)n1CC(=O)N[C@@H](CCONC(=N)N)C(=O)c1nccs1` [Example 1, N-{(1S)-1-[2-(Amidinoaminooxy)ethyl]-2-oxo-2-(1,3-thiazol-2-yl)ethyl}-2-[3-({[(2-iodophenyl)methyl]sulfonyl}amino)-6-methyl-2-oxohydropyridyl]acetamide]: at Human α-thrombin, the affinity, expressed as Ki, was 14 nM. The inhibition at 20 µM at human factor Xa (@ 20 μM) was found to be 16%. With `Cc1ccc(NS(=O)(=O)c2cccc(I)c2)c(=O)n1CC(=O)N[C@@H](CCONC(=N)N)C(=O)c1nccs1` [Example 3, N-{(1S)-1-[2-(Amidinoaminooxy)ethyl]-2-oxo-2-(1,3-thiazol-2-yl)ethyl}-2-(3-{[(3-iodophettyl)sulfonyl]amino}-6-methyl-2-oxohydropyridyl)acetamide], affinity at Human α-thrombin was put at a Ki of 45 nM. In turn, `Cc1ccc(NS(=O)(=O)c2cccc(I)c2)c(=O)n1CC(=O)N[C@@H](CCONC(=N)N)C(=O)c1nc2ccccc2s1` [Example 4, N-{(1S)-1-[2-(Amidinoaminooxy)ethyl]-2-benzothiazol-2-yl-2-oxoethyl}-2-(3-{[(3-iodopheityl)sulfonyl]amino}-6-methyl-2-oxohydropyridyl)acetamide] registered a Ki at Human α-thrombin of 17 nM.
